Test results from patent US10385080B2, “STAT6 inhibitors” (Board of Regents, The University of Texas System, priority 2013, dated 2019).

Tested on: Stat5
Assay: Selectivity: Stat5 phosphorylation in EGF-stimulated MDA-MB-468 cells
Type: cell-based
Conditions: serum starved MDA-MB-468 cells, 2 hr
Description: (§1) Compounds were screened at 5 μM for their ability to inhibit IL-4 stimulated phosphorylation of STAT6 in Beas-2B immortalized human airway cells. Cells were treated with prodrug for 2 hr and then stimulated with IL-4. After 30 min cells were lysed and pSTAT6 and total STAT6 were measured with western blots (FIG. 7). Without being bound by theory, the inhibition observed is consistent with compounds entering cells, being stripped of the POM groups, binding to the SH2 domain of STAT6, blocking binding to IL-4Rα and preventing phosphorylation of Tyr641. […] Compounds resulting in <10% residual phosphorylation were taken on to MTS cytotoxicity assays and dose response assays. (FIG. 8). The cyclic aromatic amides PM-63I, PM-80I, PM-81I, and PM-86I were very potent with IC50 values from 50-500 nM. […] With the exception of PM-43I, concentrations that inhibit STAT6 phosphorylation are 20-100 fold lower than those resulting in toxicity. STAT6 inhibitors were assayed for their ability to inhibit the phosphorylation of STAT 1, STAT 3, STAT 5, Akt, and FAK, all processes that depend on SH2 domain-phosphotyrosine interactions (Mandal, P. K. et al. 2011). Serum starved MDA-MB-468 breast cancer cells were treated with STAT6 inhibitors for 2 hr and then were stimulated with EGF (See FIGS. 9A and 9B).

| SMILES | cross reactivity with Stat5 |
| --- | --- |
| C/C(=C\C(=O)N[C@H](C(=O)N1CCC[C@H]1C(=O)N1CCc2ccccc21)C(C)(C)C)c1ccc(C(F)(F)P(=O)(OCOC(=O)C(C)(C)C)OCOC(=O)C(C)(C)C)cc1 [PM-63I] | significant cross reactivity |

Molecular target: T1, STAT6 (Homo sapiens, UniProt P42226)
T1 sequence (P42226 1-847): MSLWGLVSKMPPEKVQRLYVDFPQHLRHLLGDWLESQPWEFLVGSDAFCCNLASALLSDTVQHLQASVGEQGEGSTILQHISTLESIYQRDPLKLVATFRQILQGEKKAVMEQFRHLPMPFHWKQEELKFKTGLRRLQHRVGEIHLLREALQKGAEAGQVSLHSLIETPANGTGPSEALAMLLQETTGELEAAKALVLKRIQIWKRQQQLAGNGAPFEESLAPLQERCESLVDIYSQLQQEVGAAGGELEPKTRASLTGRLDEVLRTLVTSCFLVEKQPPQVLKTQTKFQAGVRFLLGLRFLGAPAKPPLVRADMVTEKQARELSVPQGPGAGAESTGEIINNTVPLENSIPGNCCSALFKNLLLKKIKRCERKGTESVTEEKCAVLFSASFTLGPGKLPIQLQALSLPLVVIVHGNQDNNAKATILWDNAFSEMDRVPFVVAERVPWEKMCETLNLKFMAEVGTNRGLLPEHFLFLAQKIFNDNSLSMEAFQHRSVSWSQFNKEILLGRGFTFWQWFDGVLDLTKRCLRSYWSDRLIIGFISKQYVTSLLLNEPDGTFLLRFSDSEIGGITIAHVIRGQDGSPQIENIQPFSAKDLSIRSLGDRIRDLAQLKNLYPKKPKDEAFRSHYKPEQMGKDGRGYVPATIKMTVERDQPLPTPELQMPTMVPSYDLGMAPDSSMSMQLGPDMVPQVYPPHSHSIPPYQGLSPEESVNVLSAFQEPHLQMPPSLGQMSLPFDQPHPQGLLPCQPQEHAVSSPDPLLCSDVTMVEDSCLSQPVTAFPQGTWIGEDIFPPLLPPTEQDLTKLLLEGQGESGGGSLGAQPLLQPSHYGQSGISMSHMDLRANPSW
Assay: Inhibition of IL-4 (and IL-13) stimulated phosphorylation of STAT6 in Beas-2B cells, western blot
Type: cell-based
Parameters: endogenous in cells; host or cells: Beas-2B immortalized human airway cells
Conditions: dose response
Description: Compound PM-241H inhibited the phosphorylation of Tyr641 of STAT6 in Beas-2B cells stimulated with IL-4 and IL-13.
as §1
Cells or lungs were isolated and lysed in RIPA buffer (9806S; Cell Signaling, Danvers, Mass.), protein was quantified using BCA Protein Assay Reagent (23227; Thermo Fisher Scientific, Rockford, Ill.) and denatured in Laemmli sample buffer (161-0737; Bio-Rad, Hercules, Calif.) according to manufacturer's protocol. Proteins were separated on SDS-Page gels were hand-poured using a standard electrophoresis unit (Bio-Rad, Hecules, Calif.) and transferred to a membrane using iBlot Gel Transfer Device (IB 1001; Invitrogen, Grand Island, N.Y.). Membranes were blocked in 2% FBS PBST and probed for c-Src, p-c-Src, pErk1/2, Erk1/2, p STAT6, STAT6, pSTAT3, STAT3, pSTAT5, STAT5, Shp-1, and β-actin. Signal was detected with a ChemiDoc XRS+ system (BioRad; Hercules, Calif.).

| SMILES | IC50 [nM] |
| --- | --- |
| C/C(=C\C(=O)N[C@H](C(=O)N1CCC[C@H]1C(=O)N1CCCCC1)C(C)(C)C)c1ccc(C(F)(F)P(=O)(OCOC(=O)C(C)(C)C)OCOC(=O)C(C)(C)C)cc1 [PM-74I] | 50 |
| C/C(=C\C(=O)N[C@H](C(=O)N1CCC[C@H]1C(=O)N1CCc2ccccc2C1)C(C)(C)C)c1ccc(C(F)(F)P(=O)(OCOC(=O)C(C)(C)C)OCOC(=O)C(C)(C)C)cc1 [PM-81I] | 50 to 500 |
| C/C(=C\C(=O)N[C@H](C(=O)N1CCC[C@H]1C(=O)N1CCc2ccccc21)C(C)(C)C)c1ccc(C(F)(F)P(=O)(OCOC(=O)C(C)(C)C)OCOC(=O)C(C)(C)C)cc1 [PM-63I] | 50 to 500 |
| C/C(=C\C(=O)N[C@H](C(=O)N1CCC[C@H]1C(=O)N1CCCc2ccccc21)C(C)(C)C)c1ccc(C(F)(F)P(=O)(OCOC(=O)C(C)(C)C)OCOC(=O)C(C)(C)C)cc1 [PM-86I] | 50 to 500 |
| C/C(=C\C(=O)N[C@H](C(=O)N1CCC[C@H]1C(=O)N1CCCCc2ccccc21)C(C)(C)C)c1ccc(C(F)(F)P(=O)(OCOC(=O)C(C)(C)C)OCOC(=O)C(C)(C)C)cc1 [PM-80I] | 50 to 500 |

Tested on: not listed separately
Assay: Toxicity: weights of mice during challenge with different doses
Type: in vivo
Conditions: different doses
Description: (§2) The issue of toxicity was addressed with the newer synthetic STAT6 peptidomimetic agents 86i and 43i in two ways. First, the inventors determined the effect of each inhibitor on asthma-related parameters in fungus-challenged mice. […] Second, the weights of mice were measured during challenge with the different doses of both STAT6 inhibitors.

| SMILES | toxicity by weight gain over the period of drug administration |
| --- | --- |
| C/C(=C\C(=O)N[C@H](C(=O)N1CCC[C@H]1C(=O)N1CCCc2ccccc21)C(C)(C)C)c1ccc(C(F)(F)P(=O)(OCOC(=O)C(C)(C)C)OCOC(=O)C(C)(C)C)cc1 [PM-86I] | no toxicity |

Tested on: asthma-related parameters
Assay: Dose effect on asthma-related parameters in fungus-challenged mice
Type: in vivo
Conditions: dose of 5 micrograms
Description: as §2
Mice were challenged intranasally with a clinical isolate of 4×10^5 A. niger conidia every two days for a total of 8 challenges and treated with 50 μg of the indicated β-agonist, liposome vehicle (DLPC) and/or PM-242H (5 or 50 μg) intranasally as indicated and the allergic airway disease phenotype was determined according to previously described methods (Porter, P. et al. 2009).
Allergic airway disease was assessed as previously described (Porter, P. et al. 2009). Changes in respiratory system resistance (RRS) in response to intravenous acetylcholine challenge, bronchoalveolar lavage (BAL) fluid differential counts, and analysis of lung IL-4, IL-17A and IFN-γ producing cells by enzyme linked immunocell spot assay (ELISpot) were performed as previously described (Lee, S. H. et al. 2003; Polikepahad, S. et al. 2010).

| SMILES | inhibition of airway hyperresponsiveness | inhibition of airway inflammation | inhibition of lung IL-4 responses |
| --- | --- | --- | --- |
| C/C(=C\C(=O)N[C@H](C(=O)N1CCC[C@H]1C(=O)N1CCCc2ccccc21)C(C)(C)C)c1ccc(C(F)(F)P(=O)(OCOC(=O)C(C)(C)C)OCOC(=O)C(C)(C)C)cc1 [PM-86I] | intermediately effective | maximally effective | maximally effective |

Same assay, conditions: dose of 50 micrograms

| SMILES | inhibition of airway hyperresponsiveness |
| --- | --- |
| C/C(=C\C(=O)N[C@H](C(=O)N1CCC[C@H]1C(=O)N1CCCc2ccccc21)C(C)(C)C)c1ccc(C(F)(F)P(=O)(OCOC(=O)C(C)(C)C)OCOC(=O)C(C)(C)C)cc1 [PM-86I] | maximally effective |

Same assay, conditions: dose of 50 micrograms; to sham-treated levels

| SMILES | lung inflammation and IL-4 responses |
| --- | --- |
| C/C(=C\C(=O)N[C@H](C(=O)N1CCC[C@H]1C(=O)N1CCCc2ccccc21)C(C)(C)C)c1ccc(C(F)(F)P(=O)(OCOC(=O)C(C)(C)C)OCOC(=O)C(C)(C)C)cc1 [PM-86I] | rebound |

Molecular target: T1, STAT6
Assay: Fluorescence polarization competition with FAM-labelled IL-4Rα Tyr631 phosphopeptide for binding to STAT6
Conditions: other phosphate-containing STAT6 inhibitors; competition with FAM-Ala-pTyr-Lys-Pro-Phe-Gln-Asp-Leu-Ile-NH2
Description: The following structures as phosphate esters were synthesized and assayed them for the ability to compete with FAM-Ala-pTyr-Lys-Pro-Phe-Gln-Asp-Leu-Ile-NH2, derived from Tyr631 of IL-4Rα, for binding to STAT6 using fluorescence polarization (FAM=5-carboxyfluorescein). The fluorescence polarization methodology was adapted from Wu et al., 1997, which is incorporated herein by reference. Amide bond replacements, cyclic amides, and cyclic lactams in the central part of the compound were explored.

| SMILES | IC50 [nM] |
| --- | --- |
| C/C(=C\C(=O)N[C@H](C(=O)N1CCC[C@H]1C(=O)Nc1ccccc1)C(C)(C)C)c1ccc(OP(=O)(O)O)cc1 [PM-302H-A] | 268 ± 70 |
| C/C(=C\C(=O)N[C@H](C(=O)N[C@@H](C)C(=O)N(C)c1ccccc1)C(C)(C)C)c1ccc(OP(=O)(O)O)cc1 [PM-26I] | 120 ± 16 |
| CC(C)(C)[C@H](NC(=O)/C=C/c1ccc(OP(=O)(O)O)cc1)C(=O)N1CCC[C@H]1C(=O)N(c1ccccc1)c1ccc(I)cc1 [PM-287H] | 73 ± 10 |
| CCN(CC)C(=O)[C@@H]1CCCN1C(=O)[C@@H](NC(=O)/C=C(\C)c1ccc(OP(=O)(O)O)cc1)C(C)(C)C [PM-302H-B] | 377 ± 90 |
| C/C(=C\C(=O)N[C@H](C(=O)N1CCC[C@H]1C(=O)N(c1ccccc1)c1ccc(I)cc1)C(C)(C)C)c1ccc(OP(=O)(O)O)cc1 [PM-286H] | 53 ± 10 |
| CC(C)(C)[C@H](NC(=O)/C=C/c1ccc(OP(=O)(O)O)cc1)C(=O)N1CCC[C@H]1C(=O)N(c1ccccc1)c1ccccc1 [PM-300H-A] | 120 ± 40 |
| C/C(=C\C(=O)N[C@H](C(=O)N1CCC[C@H]1C(=O)N(C)C1CCCCC1)C(C)(C)C)c1ccc(OP(=O)(O)O)cc1 [PM-70I] | 230 ± 140 |
| C/C(=C\C(=O)N[C@H](C(=O)N1CCC[C@H]1C(=O)N(c1ccccc1)c1ccccc1)C(C)(C)C)c1ccc(OP(=O)(O)O)cc1 [PM-300H-B] | 89 ± 10 |
| C/C(=C\C(=O)N[C@H](C(=O)N1CCC[C@H]1C(=O)N(C)c1ccccc1)C(C)(C)C)c1ccc(OP(=O)(O)O)cc1 [PM-301H] | 117 ± 30 |

Same assay, conditions: select phosphate-containing STAT6 inhibitors; competition with FAM-Ala-pTyr-Lys-Pro-Phe-Gln-Asp-Leu-Ile-NH2

| SMILES | IC50 [nM] |
| --- | --- |
| C/C(=C\C(=O)N[C@H](C(=O)N1CCC[C@H]1C(=O)N1CCN(C)CC1)C(C)(C)C)c1ccc(OP(=O)(O)O)cc1 [PM-67I-C] | 1900 ± 840 |
| C/C(=C\C(=O)N[C@H](C(=O)N1CCC[C@H]1C(=O)N1CCCc2ccccc21)C(C)(C)C)c1ccc(OP(=O)(O)O)cc1 [PM-87I] | 240 ± 130 |
| C/C(=C\C(=O)NC1CCc2cccc3c2N(C1=O)[C@H](C(=O)N(C)c1ccccc1)C3)c1ccc(OP(=O)(O)O)cc1 (some centres unmarked) [PM-34I] | 280 ± 60 |
| C/C(=C\C(=O)N[C@H](C(=O)N1CCC[C@H]1C(=O)N1CCc2ccccc2C1)C(C)(C)C)c1ccc(OP(=O)(O)O)cc1 [PM-71-A] | 50 ± 40 |
| C/C(=C\C(=O)N[C@H]1CCCCN(CC(=O)N(C)c2ccccc2)C1=O)c1ccc(OP(=O)(O)O)cc1 [PM-28I] | 630 ± 13 |
| C/C(=C\C(=O)N[C@H](C(=O)N1CCC[C@H]1C(=O)N1CCOCC1)C(C)(C)C)c1ccc(OP(=O)(O)O)cc1 [PM-67I-B] | 103 ± 50 |
| C/C(=C\C(=O)N[C@H](C(=O)N1CCC[C@H]1/C=C/CCc1ccccc1)C(C)(C)C)c1ccc(OP(=O)(O)O)cc1 [PM-9I] | 771 ± 290 |
| C/C(=C\C(=O)N[C@H](C(=O)N1CCC[C@H]1C(=O)N1CCc2ccccc21)C(C)(C)C)c1ccc(OP(=O)(O)O)cc1 [PM-59I] | 260 ± 90 |
| C/C(=C\C(=O)N[C@H](C(=O)N1CCC[C@H]1C(=O)N1CCCCC1)C(C)(C)C)c1ccc(OP(=O)(O)O)cc1 [PM-67I-A] | 370 ± 90 |
| C/C(=C\C(=O)N[C@H](C(=O)N1CCC[C@H]1CCCCc1ccccc1)C(C)(C)C)c1ccc(OP(=O)(O)O)cc1 [PM-10I] | 2090 ± 930 |
| C/C(=C\C(=O)N[C@H](C(=O)NC1CCCCN(c2ccccc2)C1=O)C(C)(C)C)c1ccc(OP(=O)(O)O)cc1 (some centres unmarked) [PM-60I] | 2330 ± 500 |
